#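 Growth conditions: 96-well plates. Treatment: test compound, 48 hours, 5 concentrations. Analysis: linear interpolation between bracketing concentrations; unreached endpoints set to highest concentration. GI50 = concentration required for 50% inhibition of growth.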 Active and inactive are the calls of the source. No stated cut-off is given here; in the data, active = GI50 up to about 1.1 µM and inactive = higher.
# Experiments:
# Assay in all cases: NCI anticancer screen, dose series, 48 h
# [1] = system: U-251
# [2] = system: OVCAR-3
# [3] = system: UACC-62
# [4] = system: OVCAR-5
# [5] = system: OVCAR-8
# [6] = system: MDA-N
# [7] = system: SN12C
# [8] = system: T47D
# [9] = system: SF-268
# [10] = system: SNB-75
# [11] = system: Malme-3M
# [12] = system: IGROV-1
# [13] = system: UACC-257
# [14] = system: LOX IMVI
# [15] = system: MDA-MB-231
# [16] = system: MOLT-4
# [17] = system: SR
# [18] = system: A498
# [19] = system: NCI-H460
# [20] = system: HCC 2998
SMILES,GI50 [1],GI50 [2],GI50 [3],GI50 [4],GI50 [5],GI50 [6],GI50 [7],GI50 [8],GI50 [9],GI50 [10],GI50 [11],GI50 [12],GI50 [13],GI50 [14],GI50 [15],GI50 [16],GI50 [17],GI50 [18],GI50 [19],GI50 [20]
CSc1ncnc2c1ncn2CC(=O)C1CCC2C3CCC4=CC(=O)CCC4(C)C3CCC12C (stereo unspecified),7.62 µM (inactive),4.25 µM (inactive),3.21 µM (inactive),23.9 µM (inactive),3.53 µM (inactive),3.07 µM (inactive),18.3 µM (inactive),1.91 µM (inactive),14.6 µM (inactive),5.19 µM (inactive),7.16 µM (inactive),6.95 µM (inactive),2.05 µM (inactive),4.38 µM (inactive),6.64 µM (inactive),1.69 µM (inactive),2.16 µM (inactive),5.13 µM (inactive),4.35 µM (inactive),
CCOc1ccc(/N=N/S(=O)(=O)O)cc1,> 100 µM (inactive),> 100 µM (inactive),> 100 µM (inactive),> 100 µM (inactive),> 100 µM (inactive),> 100 µM (inactive),> 100 µM (inactive),> 100 µM (inactive),> 100 µM (inactive),> 100 µM (inactive),> 100 µM (inactive),> 100 µM (inactive),> 100 µM (inactive),> 100 µM (inactive),> 100 µM (inactive),,> 100 µM (inactive),> 100 µM (inactive),> 100 µM (inactive),> 100 µM (inactive)
CN(C)CCNc1ccc(NCC[N+](C)(C)Cc2ccc([N+](=O)[O-])cc2)c2c1C(=O)c1ccccc1C2=O,19.4 µM (inactive),12 µM (inactive),18.5 µM (inactive),> 25 µM (inactive),> 25 µM (inactive),18.3 µM (inactive),5.56 µM (inactive),> 25 µM (inactive),11.9 µM (inactive),> 25 µM (inactive),22.6 µM (inactive),14.5 µM (inactive),8.41 µM (inactive),15 µM (inactive),4.86 µM (inactive),9.04 µM (inactive),6.15 µM (inactive),17.5 µM (inactive),,
CN(C)/C=C/c1c2c(nc3ccccc13)C(=O)c1ccccc1C2=O,0.991 µM (active),,0.25 µM (active),3.15 µM (inactive),1.63 µM (inactive),0.483 µM (active),1.26 µM (inactive),1.41 µM (inactive),1.77 µM (inactive),,0.71 µM (active),1.19 µM (inactive),0.498 µM (active),0.067 µM (active),1.55 µM (inactive),1.03 µM (active),0.449 µM (active),3.91 µM (inactive),0.262 µM (active),1.93 µM (inactive)
CN(C)CCCn1c2ccccc2c2cnccc21,39.1 µM (inactive),42.9 µM (inactive),40.4 µM (inactive),38.4 µM (inactive),55.3 µM (inactive),25.2 µM (inactive),17.1 µM (inactive),70.8 µM (inactive),50.7 µM (inactive),66.1 µM (inactive),28.6 µM (inactive),64.7 µM (inactive),18.7 µM (inactive),24.2 µM (inactive),30.8 µM (inactive),24.4 µM (inactive),19.2 µM (inactive),38.5 µM (inactive),23.9 µM (inactive),
COc1ccc(-c2nc(N)c(C#N)c3c2CCS(=O)(=O)c2ccc(C)cc2-3)cc1OC,40.6 µM (inactive),39.6 µM (inactive),15.2 µM (inactive),19.6 µM (inactive),74.3 µM (inactive),11.7 µM (inactive),50.2 µM (inactive),39.1 µM (inactive),51.2 µM (inactive),23.7 µM (inactive),26.5 µM (inactive),31.6 µM (inactive),22.6 µM (inactive),48.3 µM (inactive),28.6 µM (inactive),,0.252 µM (active),23.3 µM (inactive),28.2 µM (inactive),27.6 µM (inactive)
[N-]=[N+]=CC(=O)C1CCN(c2ccccc2)C1=O (stereo unspecified),> 10 µM (inactive),> 10 µM (inactive),> 10 µM (inactive),> 10 µM (inactive),> 10 µM (inactive),> 10 µM (inactive),> 10 µM (inactive),> 10 µM (inactive),> 10 µM (inactive),,> 10 µM (inactive),> 10 µM (inactive),> 10 µM (inactive),> 10 µM (inactive),> 10 µM (inactive),> 10 µM (inactive),> 10 µM (inactive),> 10 µM (inactive),> 10 µM (inactive),> 10 µM (inactive)

# From ChEMBL document CHEMBL1201862, “PubChem BioAssay data set” (2004)
